In one data set the test system is healthy human individual. Description: Human effects of non-racemic 5-MAPB, self-reported ratings (Good, Bad, Open). The data set is classed as in vivo. To be noted: averaged from all sessions, 54 mg 5-MAPB HCl oral in two halves. On the procedure:
The effects of non-racemic 5-MAPB HCl were tested by a healthy human individual at four different ratios of enantiomers plus the racemate as a control: • 54 mg S and 0 mg R (100% S) • 47 mg Sand 7 mg R (87% S) • 36 mg S and 18 mg R (67% S) • 27 mg S and 27 mg R (50% S) • 7 mg S and 47 mg R (13% S)
Two trials were carried out at each ratio, except for 13% S where only one was conducted. Trials were at least 72 h apart.
5-MAPB HCl was dissolved in 1.5 ml distilled water and consumed in two halves, separated by 1 hour. Starting at 3 hours after administration, tablets of 250 mg ascorbic acid and capsules of 300 mg alpha lipoic acid were taken ad libitum (approximately every hour for a total of 4 administrations).
Measurements were made approximately every 2 hours until post 6 hours and the maximum ratings per session were analyzed. Additionally, an index of good drug effects versus emotional openness, calculated as (Open−Good)/(200, the theoretical maximum of Open+Good), was constructed at each time point and the maximum analyzed. In healthy volunteers, Good Ratings can be considered a predictor of abuse liability. Accordingly, this index can be used as an indicator of the balance of a therapeutic effect (emotional openness) vs abuse liability.
Historic data of two trials 50 mg RS-5-MAPB Cl from the same individual were also included in the analysis for comparison.

Data set [1] concerns the target T1, SERT (Homo sapiens (Human), UniProt P31645). Description: hSERT release assay in CHO cells ([3H]serotonin). As to conditions: read-out: EC50 SERT (Mean ± SEM), CHO cells expressing hSERT.
The test system of a further data set is MDR1-MDCKII. Briefly: In vitro absorption assay, MDR1-MDCKII permeability. It is filed as in vitro ADME. To be noted: 10 μM. On the procedure: (§1) The permeability of 10 μM RS-5-MAPB in Caco-2, MDCKII, and MDR1-MDCKII cell line assays was assessed (Table 6). Both the AB and BA directions with and without the addition of a Pgp-specific inhibitor (verapamil), a MRP1 inhibitor (MK571), and an ATP-binding cassette subfamily G member 2 (ABCG2/BCRP) inhibitor (KO143) were measured. Trials were repeated twice, and values averaged.

For another data set, the system named is Caco-2. Briefly: In vitro absorption assay, Caco-2 permeability. The data set is classed as in vitro ADME. As to conditions: for Permeability (Papp, 10^-6 cm/s) A-B / Permeability (Papp, 10^-6 cm/s) B-A: 10 μM. On the procedure: as §1
(In general: Passage across Caco-2 layers is used to estimate intestinal permeability.)

Data set [2] concerns the target T2, DAT (Homo sapiens (Human), UniProt Q01959). Briefly: hDAT release assay in CHO cells ([3H]dopamine). As to conditions: read-out: EC50 DAT (Mean ± SEM), CHO cells expressing hDAT.
The next data set deals with MDCKII. Description: In vitro absorption assay, MDCKII permeability. It is filed as in vitro ADME. To be noted: 10 μM, pH 7.4/7.4. On the procedure: as §1
The target of data set [3] is T1, SERT. As to conditions: read-out: IC50 inhibiting reuptake at SERT; cited from earlier work.
The target of data set [4] is T2, DAT. To be noted: read-out: IC50 inhibiting reuptake at DAT; cited from earlier work.
For data set [5], the target named is T3, serotonin (5-HT) transporter (SERT) (Rattus norvegicus (Rat), UniProt P31652). Description: Rat synaptosome SERT [3H]5-HT uptake inhibition assay. To be noted: Inhibition of [3H]5-HT Uptake at SERT IC50 (nM), 5 nM [3H]5-HT.
Data set [6] concerns the target T3, serotonin (5-HT) transporter (SERT). Description: Rat synaptosome SERT [3H]5-HT release assay. As to conditions: [3H]5-HT release via SERT EC50 (nM), 5 nM [3H]5-HT.
The target of another data set is 5-HT1B (Homo sapiens (Human), UniProt P28222). As to conditions: cited from earlier work.
A further data set has as its system neuritogenesis. To be noted: cited from earlier work.

Entries after “also recorded” stand apart in the source; their conditions may differ.

The source of these data is patent publication US11767305B2, “Advantageous benzofuran compositions for mental disorders or enhancement” (Tactogen Inc, priority 2020, dated 2023).

Chain of 5-HT1B (P28222 whole entry, looked up, species assumed): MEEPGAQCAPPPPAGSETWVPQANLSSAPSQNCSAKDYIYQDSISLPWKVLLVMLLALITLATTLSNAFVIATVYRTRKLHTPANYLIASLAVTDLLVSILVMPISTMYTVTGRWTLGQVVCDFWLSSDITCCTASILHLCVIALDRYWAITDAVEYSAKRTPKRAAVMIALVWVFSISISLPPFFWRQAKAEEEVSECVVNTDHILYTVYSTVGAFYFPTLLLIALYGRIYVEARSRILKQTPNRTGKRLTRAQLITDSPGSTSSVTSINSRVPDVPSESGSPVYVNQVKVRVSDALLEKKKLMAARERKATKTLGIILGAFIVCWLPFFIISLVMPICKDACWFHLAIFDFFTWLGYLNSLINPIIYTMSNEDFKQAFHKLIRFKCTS

Consider `CNC(C)Cc1ccc2occc2c1.Cl` (stereo not shown) [RS-5-MAPB], for which the Bad in the data set with healthy human individual (maximum 0-100 rating of bad drug effects) is on record as 10%. Moreover, in the data set with healthy human individual (maximum 0-100 rating of emotional openness), the Open was 45%. In addition, in the data set with healthy human individual (maximum 0-100 rating of good drug effects), the Good is reported as 50%. In addition, the figures for the EC50 at SERT [1] and on DAT [2] were 0.09 ± 0.016 µM and 0.459 ± 0.048 µM, respectively. Moreover, the “Permeability (Papp, 10^-6 cm/s) A-B” value in the data set with MDR1-MDCKII (pH 7.4/7.4) is reported as 68.7 10^-6 cm/s; in the data set with MDR1-MDCKII (pH 7.4/7.4 + verapamil), 42.8 10^-6 cm/s; in the data set with Caco-2 (Caco-2, pH 7.4/7.4) it was 81 10^-6 cm/s; in the data set on Caco-2 (Caco-2, pH 7.4/7.4 + KO143) it was 75.3 10^-6 cm/s; in the data set on Caco-2 (Caco-2, pH 7.4/7.4 + verapamil) it was 37.6 10^-6 cm/s; in the data set on MDCKII, 82.1 10^-6 cm/s. Besides, the “Permeability (Papp, 10^-6 cm/s) B-A” value with MDR1-MDCKII (pH 7.4/7.4) is given as 20.5 10^-6 cm/s; with MDR1-MDCKII (pH 7.4/7.4 + verapamil), 30.4 10^-6 cm/s; with Caco-2 (Caco-2, pH 7.4/7.4) it was 29.1 10^-6 cm/s; in the data set with Caco-2 (Caco-2, pH 7.4/7.4 + KO143), 14 10^-6 cm/s; in the data set on Caco-2 (Caco-2, pH 7.4/7.4 + verapamil) it was 23 10^-6 cm/s; in the data set with MDCKII, 19.8 10^-6 cm/s. In addition, the “absorption and transport (conclusion from permeability assays)” value in the data set on Caco-2 (Caco-2, MDCKII and MDR1-MDCKII) is reported as “well absorbed; also recorded: actively transported through a mechanism that was inhibited by verapamil”.
In the case of `CNC(C)Cc1ccc2occc2c1` (racemic) [racemic 5-MAPB, 1-(benzofuran-5-yl)-N-methylpropan-2-amine], the results for the 50% inhibitory concentration (IC50) on SERT [3] and at DAT [4] were 8.5 µM and 3.1 µM, respectively.
`CNC(C)Cc1ccc2c(c1)OCO2` (stereo not shown) [MDMA]: half-maximal inhibition in [5] (IC50) was put at 384 ± 32.8 nM. Further, the concentration giving a half-maximal response (EC50) (usually the midpoint of the concentration-response curve) was 94.3 ± 13.6 nM in [6] and 0.00741 µM in the data set with neuritogenesis (read-out: EC50 for promoting neuritogenesis). Also, on 5-HT1B, the “binding to 5-HT1B” value is “does not bind directly”. The “Emax for promoting neuritogenesis” value in the data set on neuritogenesis (relative to ketamine) is given as “approximately twice that of ketamine”.
